The text below walks through data of ChEMBL document CHEMBL2073825, “Ex vivo reversal of chemoresistance by tariquidar (XR9576)” (Anticancer Drugs, 2004).

In the data set the target is ATP-dependent translocase ABCB1 (Homo sapiens, UniProt P08183). Description: TP_TRANSPORTER: Vinorelbine-induced cytotoxicity in P-gp positive tumor. The data set is classed as functional, tissue-based, Neoplasm.
Sequence of ATP-dependent translocase ABCB1 (P08183 whole entry): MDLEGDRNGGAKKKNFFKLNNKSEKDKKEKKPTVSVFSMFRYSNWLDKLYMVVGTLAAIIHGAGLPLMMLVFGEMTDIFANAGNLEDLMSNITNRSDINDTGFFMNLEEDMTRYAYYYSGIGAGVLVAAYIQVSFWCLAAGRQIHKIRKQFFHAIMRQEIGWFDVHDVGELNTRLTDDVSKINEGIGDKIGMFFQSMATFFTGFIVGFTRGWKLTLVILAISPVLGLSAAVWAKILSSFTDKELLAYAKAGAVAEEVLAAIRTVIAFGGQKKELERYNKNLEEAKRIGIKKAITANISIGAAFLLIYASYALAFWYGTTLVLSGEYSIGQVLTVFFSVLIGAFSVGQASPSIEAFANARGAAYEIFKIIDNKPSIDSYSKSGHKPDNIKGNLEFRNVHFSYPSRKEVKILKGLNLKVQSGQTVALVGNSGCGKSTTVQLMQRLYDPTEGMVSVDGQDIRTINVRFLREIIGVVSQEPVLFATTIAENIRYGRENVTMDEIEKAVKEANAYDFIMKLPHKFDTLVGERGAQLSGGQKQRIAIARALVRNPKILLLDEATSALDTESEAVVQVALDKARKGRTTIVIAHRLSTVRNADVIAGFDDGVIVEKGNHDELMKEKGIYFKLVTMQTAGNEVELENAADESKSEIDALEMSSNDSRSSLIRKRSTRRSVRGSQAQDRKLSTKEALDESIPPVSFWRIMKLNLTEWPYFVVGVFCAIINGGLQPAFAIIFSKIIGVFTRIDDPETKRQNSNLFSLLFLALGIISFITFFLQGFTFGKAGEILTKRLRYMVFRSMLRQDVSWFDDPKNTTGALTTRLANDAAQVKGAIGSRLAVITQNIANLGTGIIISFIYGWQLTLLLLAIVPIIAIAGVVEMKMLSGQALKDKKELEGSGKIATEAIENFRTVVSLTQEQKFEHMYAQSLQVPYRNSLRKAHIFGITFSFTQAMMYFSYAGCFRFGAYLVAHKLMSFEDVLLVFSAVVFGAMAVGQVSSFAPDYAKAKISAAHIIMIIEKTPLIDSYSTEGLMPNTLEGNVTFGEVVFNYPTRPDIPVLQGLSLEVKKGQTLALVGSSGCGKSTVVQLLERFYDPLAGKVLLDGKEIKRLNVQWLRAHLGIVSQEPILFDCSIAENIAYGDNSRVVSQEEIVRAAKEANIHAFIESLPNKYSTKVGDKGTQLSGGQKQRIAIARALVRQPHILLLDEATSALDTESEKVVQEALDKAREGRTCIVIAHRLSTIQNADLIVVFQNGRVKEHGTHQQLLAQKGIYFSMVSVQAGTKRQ

Regarding `COc1cc2c(cc1OC)CN(CCc1ccc(NC(=O)c3cc(OC)c(OC)cc3NC(=O)c3cnc4ccccc4c3)cc1)CC2` [TARIQUIDAR], the Activity entry was “inhibitor [+]”.
